In article PMC10294756 (Journal of Enzyme Inhibition and Medicinal Chemistry, 2023):

How the values were obtained:
[1] = test system: cleaved-PARP, LC3-II and Nur77 in HepG2 cells; experiment: Western blotting, HepG2 cells; format: cell-based, human
LO2 = experiment: MTT assay, normal hepatocyte LO2; format: cell-based, human; conditions: Homo sapiens, L02, 48 h, read-out: IC50 LO2, normal liver cell line, MTT, 48 h
In vivo PK study = experiment: In vivo PK study; parameters: species or system Sprague-Dawley (SD) rats
[2] = test system: transcriptional activity of Nur77 in Hela cells; experiment: Dual-luciferase reporter assay; format: cell-based; conditions: 24 h treatment
HuH7 cells [3] = experiment: Cell cycle analysis by flow cytometry, HuH7; format: cell-based, human; conditions: 10 h
HepG2 [4] = experiment: Colony formation assay, HepG2; format: cell-based, human; conditions: HepG2, one week
A549-Nur77-/- cells = experiment: Cell cycle analysis by flow cytometry, A549 Nur77-/-; format: cell-based, human; conditions: 10 h
HepG2 [5] = experiment: MTT assay, HepG2 cells; format: cell-based, human; conditions: Homo sapiens, HepG2, 48 h, read-out: IC50 HepG2
[6] = test system: HCC cell lines (HepG2, HuH7, and SMMC-7721); experiment: MTT assay, results stated over the three HCC cell lines; format: cell-based; conditions: Homo sapiens, 48 h, read-out: IC50 against HCC cells (span over cell lines)
HepG2 cells [7] = experiment: Annexin V-FITC/PI apoptosis detection assay, HepG2; format: cell-based, human; conditions: HepG2, 1.0 μM, 24 h
SMMC-7721 = experiment: MTT assay, SMMC-7721 cells; format: cell-based, human; conditions: Homo sapiens, SMMC-7721, 48 h, read-out: IC50 SMMC-7721
HuH7 [8] = experiment: Colony formation assay, HuH7; format: cell-based, human; conditions: HuH7, one week
HuH7 [9] = experiment: MTT assay, HuH7 cells; format: cell-based, human; conditions: Homo sapiens, Huh-7, 48 h, read-out: IC50 HuH7
HepG2 cells [10] = experiment: Cell cycle analysis by flow cytometry, HepG2; format: cell-based, human; conditions: 10 h
[11] = test system: cleaved-PARP and LC3-II in HuH7 cells; experiment: Western blotting, HuH7 cells; format: cell-based, human; conditions: HuH7, 24 h
HuH7 cells [12] = experiment: Annexin V-FITC/PI apoptosis detection assay, HuH7; format: cell-based, human; conditions: 24 h
[13] = female, Sprague-Dawley, rat, plasma, iv, 2 mg/kg
[14] = female, Sprague-Dawley, rat, plasma, po, 20 mg/kg

Cc1cc(Nc2ccc(C(=O)N/N=C/c3scnc3C)cc2)c2cccc(O)c2n1 [TMHA37, (E)-4-((8-hydroxy-2-methylquinolin-4-yl)amino)-N'-((4-methylthiazol-5-yl)methylene)benzohydrazide]
Nur77 protein expression in cytoplasm and nucleus ([1]; HepG2, 10 μM, 3 h): increased the protein expression levels of Nur77 in both cytoplasm and nuclear | LC3-II level ([1]; HepG2, 24 h): dose-dependently increased the level of LC3-II | cleaved-PARP level ([1]; HepG2, 24 h): dose-dependent upregulation of cleaved-PARP | IC50 (LO2): 21.2 ± 1.79 µM | CL (In vivo PK study; SD rats, p.o. 20 mg/kg): 1986.3 ± 307.2 mL/min/kg | Vz (In vivo PK study; SD rats, p.o. 20 mg/kg): 192.55 ± 22.13 L/kg | AUC(0-inf) (In vivo PK study; [13]): 247 ± 72.6 ng·h/mL | Cmax (In vivo PK study; [13]): 293 ± 45.5 ng/mL | Tmax (In vivo PK study; [13]): 0.08 h | Vd (In vivo PK study; [13]): 22.2 ± 10.1 L/kg | clearance (In vivo PK study; [13]): 143 mL/min/kg | half-life (In vivo PK study; [13]): 1.54 ± 0.35 h | AUC(0-inf) (In vivo PK study; [14]): 170 ± 25.4 ng·h/mL | Cmax (In vivo PK study; [14]): 19.6 ± 0.97 ng/mL | Tmax (In vivo PK study; [14]): 5.83 ± 3.75 h | half-life (In vivo PK study; [14]): 1.13 ± 0.09 h | reporter activity [2]: significantly increased the reporter fluorescence intensity in a dose-dependent manner | cells in G2 (G2/M) (HuH7 cells [3]; HuH7, TMHA37 1 μM): 20.07% | cells in G2 (G2/M) (HuH7 cells [3]; HuH7, TMHA37 10 μM): 48.26% | colony formation (HepG2 [4]): significantly and dose-dependently inhibited the colony formation | TMHA37-caused G2/M arrest in Nur77-knockdown A549 cells compared to control cells (A549-Nur77-/- cells): significantly decreased | IC50 (HepG2 [5]): 2.33 ± 0.14 µM | IC50 [6]: 2.33 to 7.68 µM | apoptotic cells (HepG2 cells [7]): 6.42% | IC50 (SMMC-7721): 7.68 ± 1.3 µM | colony formation (HuH7 [8]): significantly and dose-dependently inhibited the colony formation | IC50 (HuH7 [9]): 4.09 ± 0.89 µM | cells in G2 (G2/M) (HepG2 cells [10]; HepG2, TMHA37 1 μM): 26.72% | cells in G2 (G2/M) (HepG2 cells [10]; HepG2, TMHA37 10 μM): 63.17% | LC3-II level [11]: dose-dependently increased the level of LC3-II | cleaved-PARP level [11]: dose-dependent upregulation of cleaved-PARP | apoptotic cells (HuH7 cells [12]; HuH7, 1.0 μM): 12.82% | apoptotic cells (HuH7 cells [12]; HuH7, 10.0 μM): 69.50%
